{
  "source": "patent US5998437A",
  "about": "“Benzimidazole derivatives” (Otsuka Pharmaceutical Co., Ltd., priority 1995, dated 1999)",
  "key": {"T cells": {"tested_on": "T cells", "test": "Activity for inhibiting proliferation of the T cells (mouse spleen cells, Concanavaline A)", "assay_type": "cell-based, Balb/c strain male mouse", "conditions": "T-cell, 2 days, then [3H] thymidine overnight", "method": "(4) Measurement of the Activity for Inhibiting Proliferation of the T Cells\nTest was conducted by the method as disclosed in \"Current Protocol in Immunology\" [Edited by Coligan, et al., (1991)] Chapter 3, page 12 (Published from Willy Interscience, Inc.). After sacrificed a Balb/c strain male mouse, the spleen was enucleated and a suspension of the spleen cells in RPMI-1640 culture medium was prepared. Said suspension was filtered through a nylon fiber mesh, and subjected to a centrifugal separation (1,200 rpm, for 5 minutes), there were added on pellet 5 ml of 0.15 M ammonium chloride, 10 mM potassium hydrogencarbonate, and 0.1 mM disodium salt of EDTA (pH 7.2) per one spleen so as to suspend the cells, and the suspension was incubated at 37° C. for 5 minutes. […] After counted the number of cells by using a hemacytometer, a suspension containing cell density of 10^6 /ml was prepared by diluting with RPMI-10 culture medium. […]\n20 μCi/ml of [methyl-^3 H] thymidine was added in an amount of 10 μl/well, after further incubated overnight, by using a cell harvester the cells were recovered on the filter of the harvester. The filter was cut out from the cell harvester and put in a vial, then 5 ml of a scintillation cocktail (ACS-II) was added, and measured by using a liquid scintillation counter. […]"}, "rat A10 cells": {"tested_on": "rat A10 cells", "test": "Activity for inhibiting proliferation of rat A10 cells ([3H]-thymidine uptake)", "assay_type": "cell-based", "conditions": "A10, 1% FBS stimulation, 24 hours, read-out: Activity for inhibiting proliferation of rat A10 cells [IC50 (μM)]", "method": "(2) Measurement of the Activity for Inhibiting Proliferation of Rat A10 Cells\n(§1) Test was conducted by the modified method of N. Morisaki [Atherosclerosis, Vol. 71, (1988), pp. 165-171]. The rat A10 cells (purchased from Dainippon Pharmaceutical Co., Ltd.) were inoculated on a 24 wells immunoplate at a density of 10,000 cells/well, and were cultured in 10% FBS (fetal bovine serum) for 2 days, and in order to introduce the cells into the resting stage, the cells were further cultured in a serum-free medium for 2 days. After that, 1% FBS was added thereto for stimulating the proliferation, of the cells and at the same time, a test compound and 0.5 μCi/well of [^3 H]-thymidine were added. As to the index of synthesized amount of DNA, the quantity of [^3 H]-thymidine being uptaken by the cells was measured at the time of 24 hours after the final cultivation was started."}, "human fibroblast": {"tested_on": "human fibroblast", "test": "Activity for inhibiting proliferation of the human fibroblast ([3H]-thymidine uptake)", "assay_type": "cell-based", "method": "as §1\n(3) Measurement of the Activity for Inhibiting Proliferation of the Human Fibroblast\nSimilar to the activity for inhibiting proliferation of rat A10 cells as mentioned above, the activity for inhibiting proliferation of the human fibroblast (purchased from Dainippon Pharmaceutical Co., Ltd.) was determined by measuring the uptake amount of [^3 H]-thymidine."}, "[1]": {"tested_on": "chronic contactive dermatitis", "test": "Activity for inhibiting chronic contactive dermatitis (TNCB, ear pinna)", "assay_type": "in vivo, Balb/c strain male mouse", "conditions": "for Thickness of ear pinna (×10 μm): control 137.1 ± 6.2, 8 animals; for Inhibition rate (%): ear pinna thickness", "method": "(5) Determination of the Activity for Inhibiting Chronic Contactive Dermatitis\nThe activity for inhibiting chronic contactive dermatitis [J. Dermatol. Sci., Vol. 8, (1994), page 54] which is analogous to atopic dermatitis being reported by Kitagaki, et al. was discussed by using the method as follows. The right-side ear pinna of Balb/c strain male mouse was subjected to antigen sensitization by coating with 20 μl of acetone solution of 1% trinitrochlorobenzene (TNCB). 7 Days after the antigen sensitization, the same right-side pinna was subjected to antigen induction by coating with 20 μl of 1% TNCB acetone solution. The treatment of antigen induction was repeated in every 2 days so as to induced chronic contactive dermatitis. In this test, increase of thickness of the right-side ear pinna was induced by passing into a chronic state of the contactive dermatitis. The test compound was dissolved in acetone-methanol (4:1 by v/v) and 20 μl of this solution was administered by coating on the right-side of ear pinna once a day from 24th day after the antigen induction for 2 weeks. As to the control, the only the solvent was similarly administered. The antigen induction by the test compound during administration period was conducted at 30 minutes before the administration. The thickness of the ear pinna of 14th day after the administration was measured by a dial thickness gauge."}, "[2]": {"conditions": "0.1% coated once a day for 2 weeks"}},
  "data": [
    {"smiles": "O=C(Nc1ccc2c(ccn2CCCn2ccnc2)c1)c1nc2ccc(Cl)cc2n1Cc1ccccc1", "note": "[Example 3, 1-benzyl-6-chloro-2-{1-[3-(imidazol-1-yl)propyl]indol-5-ylamino-carbonyl}benzimidazole]", "values": [
      {"measurement": "IC50", "setting": "T cells", "value": 2000, "unit": "nM"},
      {"measurement": "IC50", "setting": "rat A10 cells", "value": 0.5, "unit": "µM"},
      {"measurement": "IC50", "setting": "human fibroblast", "value": 40, "unit": "nM"},
      {"measurement": "Thickness of ear pinna (×10 μm)", "setting": "[1]; [2]", "value": "120.4 ± 5.3", "unit": "×10 μm"},
      {"measurement": "Thickness of ear pinna (×10 μm)", "setting": "[1]; 0.3% coated once a day for 2 weeks", "value": "105.0 ± 7.2", "unit": "×10 μm"},
      {"measurement": "Thickness of ear pinna (×10 μm)", "setting": "[1]; 1.0% coated once a day for 2 weeks", "value": "64.5 ± 1.6", "unit": "×10 μm"},
      {"measurement": "Inhibition rate (%)", "setting": "[1]; [2]", "value": 12, "unit": "%"},
      {"measurement": "Inhibition rate (%)", "setting": "[1]; 0.3% coated once a day for 2 weeks, * p < 0.01 vs control, Dunnett's test", "value": 23, "unit": "%"},
      {"measurement": "Inhibition rate (%)", "setting": "[1]; 1.0% coated once a day for 2 weeks, * p < 0.01 vs control, Dunnett's test", "value": 53, "unit": "%"}
    ]}
  ]
}
